From patent US20100298205A1, “METHODS AND COMPOSITIONS FOR THE TREATMENT OF CONDITIONS RELATED TO GASTRIC ACID SECRETION” (priority 2004, published 2010)
Where two headings read alike, the source gives them in different places.

Tests used:
[1] = Pharmacokinetics in dogs after oral or intravenous administration; type: in vivo, dogs (beagle); set-up: key to Dog T1/2 Prodrug: NC: plasma concentration of prodrug was too low to calculate half-life, or undetected; settings: for Dog T1/2 Prodrug / Dog T1/2 PPI: oral, parenthesis = standard deviation; for Dog T1/2 Prodrug: systemic half-life of intact prodrug; for Dog T1/2 PPI: systemic half-life of the proton pump inhibitor; for t1/2: systemic half-life of PPI in dogs after oral administration
Method: (§1) Blood concentrations of the compounds omeprazole, lansoprazole, pantoprazole, rabeprazole, and test compounds were quantified using an achiral liquid chromatography tandem mass spectrometry method (LC-MS/MS). Systemic pharmacokinetic parameters were determined for omeprazole or lansoprazole using non-compartmental analysis in Watson® version 6.3, available from InnaPhase Corporation, Philadelphia, Pa.

Caco-2 cells = experiment: Caco-2 membrane permeability / bi-directional transport (Papp); type: in vitro ADME, human; settings: apical to basolateral, 10 μM, 37° C.
Method: (§2) Determination of membrane permeability in all examples described herein was accomplished by the following procedure. This procedure is also used to determine whether a given prodrug falls within the scope of those claims given herein which relate to membrane permeability.
(§3) DMEM was equilibrated as a transport buffer in 37° C. water bath an hour before experiment. The cells were then equilibrated in transport buffer for 1 hr at 37° C.
(§4) Dosing solution (10 μM) was prepared by adding a 20 μL aliquot of a 10 mM stock solution of the prodrug to 20 mL of transport buffer.
(§5) Transport buffer was removed from both apical and basolateral compartment of filters. […] […] Fresh transport buffer (400 μL) was added back to the basolateral compartment, and the fluid was thoroughly mixed.
(§6) Lucifer yellow (LY) was used as a paracellular permeability reference standard to determine integrity of cell layers used in the experiments. LY transport in the apical to basolateral direction was carried out in the same manner as described above. Fluorescence level in basolateral fluid sampled at 5, 20, and 60 min post dose was determined using Fluostar Galaxy (BMG Labtechnologies, Durham, N.C.) at excitation/emission wavelengths of 485/520 nm. A standard curve covering the range from 0.002 to 0.5 mg/mL is constructed to quantify the amount of LY in the transport sample to calculate permeability coefficient (Papp).

[2] = Pharmacokinetics in rats after oral or intravenous administration; type: in vivo, rats (Sprague-Dawley); set-up: key to Rat T1/2 Prodrug: NC: plasma concentration of prodrug was too low to calculate half-life, or undetected; Rat T1/2 PPI: unit not given here; settings: oral, parenthesis = standard deviation; for Rat T1/2 Prodrug: systemic half-life of intact prodrug; for Rat T1/2 PPI: systemic half-life of the proton pump inhibitor
Method: as §1

[3] = Caco-2 membrane permeability / bi-directional transport (Papp); type: in vitro ADME, human; settings: human, Caco-2 cells
Method: as §2, §3, §4, §5, §6

[4] = somewhat buffer dependent, Kromer et al., Ekpe et al., cited from earlier work
MDR1 = experiment: MDR1-MDCK bi-directional transport (Papp); type: in vitro ADME; settings: dog, MDR1-MDCK cells
Description: as §2
• Test System: Cultured Caco-2 cells and MDR1-MDCK cells • Seeding Density: 2×10^5 cells/cm^2 in Costar 12 well Transwell™plates • Culture Age: 17-21 days post seeding for Caco-2 cells, 2-3 days post seeding for MDR1-MDCK cells • Source: American Type Culture Collection, Manassas, Va. […]
The apparent permeability coefficient (Papp, cm/sec), otherwise known herein as the membrane permeability, is determined from the following relationship: […]
The transport rate J, is calculated as the slope of the linear regression fit for the transport amount over time data using Microsoft Excel® 97 SR-2 (Microsoft Corp. Redmond, Wash.),
Lucifer yellow (LY) was used as a paracellular permeability reference standard to determine integrity of cell layers used in the experiments. […] Fluorescence level in basolateral fluid sampled at 5, 20, and 60 min post dose was determined using Fluostar Galaxy (BMG Labtechnologies, Durham, N.C.) at excitation/emission wavelengths of 485/520 nm. […]

[5] = read-out: Ratio Papp BA/Papp AB

With Cc1c(OCC(F)(F)F)ccnc1C[S+]([O-])c1nc2ccccc2n1S(=O)(=O)c1ccc(CC(=O)O)c(CC(=O)O)c1 (stereo not drawn) [Compound 12] the “Dog T1/2 Prodrug” value [1] was “NC” and the Dog T1/2 PPI [1] was 55.9 min.
For Cc1c(OCC(F)(F)F)ccnc1C[S+]([O-])c1nc2ccccc2n1S(=O)(=O)c1ccc(CC(=O)O)cc1 (stereo not drawn) [Compound 9], the Permeability (Caco-2 cells) was 0.34 ×10⁻⁶ cm/s, the “Dog T1/2 Prodrug” value [1] was “NC” and the Dog T1/2 PPI [1] was 53.6 min. The t1/2 [1] was 53.4 min, the “Rat T1/2 Prodrug” value [2] was “NC” and the “Rat T1/2 PPI” value [2] was 0.341 (0.151).
With COc1ccc(C(=O)O)cc1S(=O)(=O)n1c([S+]([O-])Cc2nccc(OCC(F)(F)F)c2C)nc2ccccc21 (stereo not drawn) [Compound 14] the Dog T1/2 Prodrug [1] was 7.08 min, the Dog T1/2 PPI [1] was 83.4 min and the “Rat T1/2 PPI” value [2] was 0.536 (0.217).
For Cc1c(OCC(F)(F)F)ccnc1C[S+]([O-])c1nc2ccccc2n1S(=O)(=O)c1ccc(OCC(=O)O)cc1 (stereo not drawn) [Compound 10], the “Dog T1/2 Prodrug” value [1] was “NC” and the “Dog T1/2 PPI” value [1] was 0.989 (0.307).
Cc1c(OCC(F)(F)F)ccnc1C[S+]([O-])c1nc2ccccc2n1S(=O)(=O)c1cccc(C(=O)O)c1 (stereo not drawn) [Compound 7] showed a Permeability (Caco-2 cells) of 0.16 ×10⁻⁶ cm/s, a Dog T1/2 Prodrug [1] of 12.4 min and a Dog T1/2 PPI [1] of 53.6 min. The t1/2 [1] was 53.4 min, the “Rat T1/2 Prodrug” value [2] was “NC” and the “Rat T1/2 PPI” value [2] was 1.93 (1.41).
In the case of Cc1c(OCC(F)(F)F)ccnc1C[S+]([O-])c1nc2ccccc2n1S(=O)(=O)c1ccc(CC(=O)O)cc1C(C)C (stereo not drawn) [Compound 15], the “Dog T1/2 Prodrug” value [1] is reported as “NC” and the Dog T1/2 PPI [1] is reported as 55.4 min.
In the case of COc1ccc(S(=O)(=O)n2c([S+]([O-])Cc3nccc(OCC(F)(F)F)c3C)nc3ccccc32)cc1C(=O)O (stereo not drawn) [Compound 8], the Permeability (Caco-2 cells) is reported as 0.23 ×10⁻⁶ cm/s, the “Dog T1/2 Prodrug” value [1] is reported as “NC” and the Dog T1/2 PPI [1] is reported as 64.8 min. The t1/2 [1] was 66 min, the “Rat T1/2 Prodrug” value [2] was “NC” and the “Rat T1/2 PPI” value [2] was 1.80 (1.20).
For Cc1ccc(C(=O)O)cc1S(=O)(=O)n1c([S+]([O-])Cc2nccc(OCC(F)(F)F)c2C)nc2ccccc21 (stereo not drawn) [Compound 13], the Dog T1/2 Prodrug [1] was 7.32 min, the Dog T1/2 PPI [1] was 106 min and the “Rat T1/2 Prodrug” value [2] was “NC”. For the same compound, the “Rat T1/2 PPI” value [2] was 2.35 (1.22).
In the case of Cc1c(OCC(F)(F)F)ccnc1C[S+]([O-])c1nc2ccccc2n1S(=O)(=O)c1ccc(OCC(C)(C)C(=O)O)cc1 (stereo not drawn) [Compound 11], the “Dog T1/2 Prodrug” value [1] is reported as “NC”, the “Dog T1/2 PPI” value [1] is reported as 0.873 (0.288) and the “Rat T1/2 Prodrug” value [2] is reported as “NC”. For the same compound, the “Rat T1/2 PPI” value [2] was 0.933 (1.009).
COc1ccc2[nH]c([S+]([O-])Cc3ncc(C)c(OC)c3C)nc2c1 (stereo not drawn) [Omeprazole] gave a Papp A→B at 60 min, 10 μM ([3]; A to B, 10 μM) of 12.6 ×10⁻⁶ cm/s, a Papp B→A at 60 min, 10 μM ([3]; B to A, 10 μM) of 16.3 ×10⁻⁶ cm/s and an efflux ratio at 60 min, 10 µM [3, 5] of 1.29. For the same compound, the “typical half-life (stability)” value ([4]; pH 5) was “about 1 hour”, the “typical half-life (stability)” value ([4]; pH 7) was “about 40 hours” and the Papp B→A at 60 min, 10 μM (MDR1; B to A, 10 μM) was 17.1 ×10⁻⁶ cm/s. For the same compound, the efflux ratio at 60 min, 10 µM (MDR1; [5]) was 1.52.
